From PubChem BioAssay AID330 (DTP/NCI, 2004)
Where “and” joins values, the source holds several entries; their conditions need not be identical. Equal entries are not always repeated. Toxic doses and inconclusive results are not listed. The calls were made as follows: active = survival T/C of 150% or more; inactive = T/C below 125% in these data.

System: P388 leukemia ip, CD2F1 mice, survival T/C
Experiment: NCI In Vivo Anticancer Drug Screen. Data for tumor model P388 Leukemia (intraperitoneal) in CD2F1 (CDF1) mice
Conditions: endpoint: median survival time, higher = longer survival
Summary of the method: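 Mice carrying the transplanted tumor received test compound or vehicle. Survival was recorded in each group, and the value is the treated-group measurement divided by that of the vehicle-treated control group.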

[1] = dose: 50.0 mg/kg/injection, schedule: Q01DX009 (ip), vehicle: Klucel (hydroxypropylcellulose) (HPC)
[2] = dose: 100.0 mg/kg/injection, schedule: Q01DX009 (ip), vehicle: Klucel (hydroxypropylcellulose) (HPC)
[3] = dose: 200.0 mg/kg/injection, schedule: Q01DX009 (ip), vehicle: Klucel (hydroxypropylcellulose) (HPC)
[4] = dose: 50.0 mg/kg/injection, schedule: Q01DX005 (ip), vehicle: Klucel (hydroxypropylcellulose) (HPC)
[5] = dose: 100.0 mg/kg/injection, schedule: Q01DX005 (ip), vehicle: Klucel (hydroxypropylcellulose) (HPC)
[6] = dose: 200.0 mg/kg/injection, schedule: Q01DX005 (ip), vehicle: Klucel (hydroxypropylcellulose) (HPC)
[7] = dose: 60.0 mg/kg/injection, schedule: Q01DX005 (ip), vehicle: Klucel (hydroxypropylcellulose) (HPC)

Measured: T/C

O=C1C=CC(=O)N1c1ccc(Cl)cc1
inactive: dose: 1.0 mg/kg/injection, schedule: Q01DX009 (ip), vehicle: Klucel (hydroxypropylcellulose) (HPC) 107 % of control | dose: 1.25 mg/kg/injection, schedule: Q01DX009 (ip), vehicle: Klucel (hydroxypropylcellulose) (HPC) 93 % of control | dose: 2.0 mg/kg/injection, schedule: Q01DX009 (ip), vehicle: Klucel (hydroxypropylcellulose) (HPC) 104 % of control | dose: 2.5 mg/kg/injection, schedule: Q01DX009 (ip), vehicle: Klucel (hydroxypropylcellulose) (HPC) 96 % of control | dose: 4.0 mg/kg/injection, schedule: Q01DX009 (ip), vehicle: Klucel (hydroxypropylcellulose) (HPC) 104 % of control | dose: 5.0 mg/kg/injection, schedule: Q01DX009 (ip), vehicle: Klucel (hydroxypropylcellulose) (HPC) 89 % of control | dose: 8.0 mg/kg/injection, schedule: Q01DX009 (ip), vehicle: Klucel (hydroxypropylcellulose) (HPC) 102 % of control | dose: 10.0 mg/kg/injection, schedule: Q01DX009 (ip), vehicle: Klucel (hydroxypropylcellulose) (HPC) 93 % of control

CCCCCOC(CN(C)C)C(Cl)(Cl)Cl (stereo unspecified)
inactive: [1] 100 % of control | [2] 100 % of control | [3] 101 % of control

O=C(/C=C/c1ccc(OCc2ccccc2)cc1)c1cccc([N+](=O)[O-])c1
inactive: dose: 50.0 mg/kg/injection, schedule: Q01DX009 (ip), vehicle: saline + alcohol 100 % of control | dose: 100.0 mg/kg/injection, schedule: Q01DX009 (ip), vehicle: saline + alcohol 92 % of control | dose: 200.0 mg/kg/injection, schedule: Q01DX009 (ip), vehicle: saline + alcohol 89 % of control

CC(=O)OC1CCC2(C)C(=CCC3C2CCC2(C)C3CC3ON=C(C)C32)C1 (stereo unspecified)
inactive: dose: 12.5 mg/kg/injection, schedule: Q01DX005 (ip), vehicle: Klucel (hydroxypropylcellulose) (HPC) 101 % of control | dose: 25.0 mg/kg/injection, schedule: Q01DX005 (ip), vehicle: Klucel (hydroxypropylcellulose) (HPC) 99 % of control | [4] 98 % of control | [5] 86 % of control | [6] 86 % of control

CC(=O)O[C@H]1C[C@@H]2C(COC(=O)CC(C)C)=CO[C@@H](OC(=O)CC(C)C)[C@@H]2[C@@]12CO2
inactive: dose: 3.75 mg/kg/injection, schedule: Q01DX005 (ip), vehicle: Klucel (hydroxypropylcellulose) (HPC) 105 % of control | dose: 7.5 mg/kg/injection, schedule: Q01DX005 (ip), vehicle: Klucel (hydroxypropylcellulose) (HPC) 101 % of control | dose: 15.0 mg/kg/injection, schedule: Q01DX005 (ip), vehicle: Klucel (hydroxypropylcellulose) (HPC) 88 % of control | dose: 30.0 mg/kg/injection, schedule: Q01DX005 (ip), vehicle: Klucel (hydroxypropylcellulose) (HPC) 95 % of control | [7] 101 % of control

CCc1c2c(cc3c1[nH]c1ccccc13)C(=O)N(c1ccc(OC)cc1)C2=O
inactive: [4] 92 % of control | [5] 91 % of control | [6] 90 % of control

OC(Cc1ccccc1)c1ccccc1 (stereo unspecified)
inactive: dose: 31.25 mg/kg/injection, schedule: Q01DX009 (ip), vehicle: saline + Tween-80 + alcohol 107 % of control | dose: 62.5 mg/kg/injection, schedule: Q01DX009 (ip), vehicle: saline + Tween-80 + alcohol 100 % of control | dose: 100.0 mg/kg/injection, schedule: Q01DX009 (ip), vehicle: suspension in saline 104 % of control | dose: 125.0 mg/kg/injection, schedule: Q01DX009 (ip), vehicle: saline + Tween-80 + alcohol 98 % of control | dose: 200.0 mg/kg/injection, schedule: Q01DX009 (ip), vehicle: suspension in saline 98 % of control | dose: 250.0 mg/kg/injection, schedule: Q01DX009 (ip), vehicle: saline + Tween-80 + alcohol 102 % of control | dose: 400.0 mg/kg/injection, schedule: Q01DX009 (ip), vehicle: suspension in saline 98 % of control

N#[O+].O.O=N[O-].O=N[O-].O=N[O-].O=N[O-].[Ru]
inactive: dose: 3.13 mg/kg/injection, schedule: Q04DX003 (ip), vehicle: water 113 % of control | dose: 6.25 mg/kg/injection, schedule: Q04DX003 (ip), vehicle: water 106 % of control and 118 % of control

O=C1OC(c2ccccc2)(c2ccccc2)c2cc3c(cc21)C(c1ccccc1)(c1ccccc1)OC3=O
inactive: dose: 100.0 mg/kg/injection, schedule: Q01DX001 (ip), vehicle: saline 93 % of control | dose: 200.0 mg/kg/injection, schedule: Q01DX001 (ip), vehicle: saline 93 % of control | dose: 400.0 mg/kg/injection, schedule: Q01DX001 (ip), vehicle: saline 92 % of control

CC(=O)Nc1ccc(OCCOC(=O)Nc2ccc(C)cc2[N+](=O)[O-])cc1
inactive: [1] 88 % of control

COC(=O)NCP(=O)(CNC(=O)OC)CNC(=O)OC
inactive: [1] 100 % of control | [2] 98 % of control | [3] 100 % of control

O=C(O)CC(NC(=O)c1ccccc1)C(=O)O (stereo unspecified)
inactive: dose: 50.0 mg/kg/injection, schedule: Q01DX005 (ip), vehicle: saline with Tween-80 96 % of control | dose: 100.0 mg/kg/injection, schedule: Q01DX005 (ip), vehicle: saline with Tween-80 102 % of control | dose: 200.0 mg/kg/injection, schedule: Q01DX005 (ip), vehicle: saline with Tween-80 92 % of control

CC(=O)n1c(Cl)c(/C=N/Nc2ccccc2[N+](=O)[O-])c2ccccc21
inactive: dose: 25.0 mg/kg/injection, schedule: Q01DX001 (ip), vehicle: Klucel (hydroxypropylcellulose) (HPC) 91 % of control | dose: 50.0 mg/kg/injection, schedule: Q01DX001 (ip), vehicle: Klucel (hydroxypropylcellulose) (HPC) 99 % of control | dose: 100.0 mg/kg/injection, schedule: Q01DX001 (ip), vehicle: Klucel (hydroxypropylcellulose) (HPC) 87 % of control and 91 % of control

CN(c1c(N)nc(N)nc1N)S(=O)(=O)c1ccc([N+](=O)[O-])cc1
inactive: [7] 108 % of control | dose: 120.0 mg/kg/injection, schedule: Q01DX005 (ip), vehicle: Klucel (hydroxypropylcellulose) (HPC) 104 % of control | dose: 240.0 mg/kg/injection, schedule: Q01DX005 (ip), vehicle: Klucel (hydroxypropylcellulose) (HPC) 100 % of control

CCCCCC(CN(C)C)C(=O)/C=C/c1ccccc1Cl (stereo unspecified)
inactive: dose: 6.25 mg/kg/injection, schedule: Q01DX009 (ip), vehicle: saline 104 % of control | dose: 12.5 mg/kg/injection, schedule: Q01DX009 (ip), vehicle: saline 102 % of control | dose: 25.0 mg/kg/injection, schedule: Q01DX009 (ip), vehicle: saline 93 % of control | dose: 50.0 mg/kg/injection, schedule: Q01DX009 (ip), vehicle: saline 101 % of control

CC(=O)OC1SC(C)(C)n2c1nc1ccccc1c2=O (stereo unspecified)
inactive: dose: 100.0 mg/kg/injection, schedule: Q01DX001 (ip), vehicle: saline with Tween-80 100 % of control | dose: 200.0 mg/kg/injection, schedule: Q01DX001 (ip), vehicle: saline with Tween-80 104 % of control | dose: 400.0 mg/kg/injection, schedule: Q01DX001 (ip), vehicle: saline with Tween-80 98 % of control

O=S(=O)(Oc1ccc(Cl)cc1)C(F)(F)C(F)(F)C(F)(F)C(F)(F)F
inactive: dose: 50.0 mg/kg/injection, schedule: Q01DX009 (ip), vehicle: saline with Tween-80 105 % of control | dose: 100.0 mg/kg/injection, schedule: Q01DX009 (ip), vehicle: saline with Tween-80 108 % of control | dose: 200.0 mg/kg/injection, schedule: Q01DX009 (ip), vehicle: saline with Tween-80 105 % of control

CC1(C)OC(COCCOCCOCCCC#N)C(COCCOCCOCCCC#N)O1 (stereo unspecified)
inactive: dose: 25.0 mg/kg/injection, schedule: Q01DX005 (ip), vehicle: saline 100 % of control | dose: 50.0 mg/kg/injection, schedule: Q01DX005 (ip), vehicle: saline 103 % of control | dose: 100.0 mg/kg/injection, schedule: Q01DX005 (ip), vehicle: saline 107 % of control | dose: 200.0 mg/kg/injection, schedule: Q01DX005 (ip), vehicle: saline 98 % of control
